Values quoted from earlier work, collected in US20160067252A1, “TRANSDERMAL DELIVERY OF SILDENAFIL AND OTHER PHOSPHODIESTERASE TYPE 5 INHIBITORS” (STRATEGIC SCIENCE & TECHNOLOGIES, LLC, priority 2013, published 2016).

| pKa | SMILES |
| --- | --- |
| 6.0 | CCCOc1ccc(S(=O)(=O)N2CCN(CCO)CC2)cc1-c1nc2c(CCC)cn(CC)c2c(=O)[nH]1 [mirodenafil] |
| 10.53 | CCCOc1ccc(S(=O)(=O)NCCC2CCCN2C)cc1-c1nc2c(CCC)nn(C)c2c(=O)[nH]1 (stereo not drawn) [udenafil] |

| SMILES | pKa |
| --- | --- |
| CN1CC(=O)N2[C@H](c3ccc4c(c3)OCO4)c3[nH]c4ccccc4c3C[C@@H]2C1=O [tadalafil] | 18 |
